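Results reflect a 48-hour exposure of cells in 96-well plates to compound at five concentrations. TGI marks complete inhibition of growth.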
Experiments:
Assay in all cases: NCI-60 cell line screen, 48 h
DU-145 prostate = system: DU-145 prostate
HCC-2998 colon = system: HCC-2998 colon
HS 578T breast = system: HS 578T breast
HT29 colon = system: HT29 colon
K-562 leukemia = system: K-562 leukemia
MCF7 breast = system: MCF7 breast
NCI-H23 lung = system: NCI-H23 lung
NCI-H460 lung = system: NCI-H460 lung
PC-3 prostate = system: PC-3 prostate
SK-MEL-28 melanoma = system: SK-MEL-28 melanoma
A498 renal = system: A498 renal

CCOC(=O)[C@H](CO)Nc1c(O)c2c(c(O)c1Cl)C(=O)C=CC2=O
TGI (DU-145 prostate): > 10 µM
TGI (HCC-2998 colon): > 10 µM
TGI (HS 578T breast): > 10 µM
TGI (HT29 colon): > 10 µM
TGI (K-562 leukemia): > 10 µM
TGI (MCF7 breast): > 10 µM
TGI (NCI-H23 lung): > 10 µM
TGI (NCI-H460 lung): > 10 µM
TGI (PC-3 prostate): > 10 µM
TGI (SK-MEL-28 melanoma): > 10 µM

COc1cc(CC2C(=O)OCC2[C@@H](OC(C)=O)c2ccc3c(c2)OCO3)c(Br)c(OC)c1OC (stereo partly drawn)
TGI (HCC-2998 colon): > 100 µM
TGI (HT29 colon): > 100 µM
TGI (NCI-H23 lung): > 100 µM
TGI (NCI-H460 lung): > 100 µM
TGI (SK-MEL-28 melanoma): > 100 µM

CCOP(=O)(OCC)C(C)(CC)/N=C(\N)NC#N (stereo not drawn)
TGI (DU-145 prostate): > 100 µM
TGI (HCC-2998 colon): > 100 µM
TGI (HS 578T breast): > 100 µM
TGI (HT29 colon): > 100 µM
TGI (K-562 leukemia): > 100 µM
TGI (MCF7 breast): > 100 µM
TGI (NCI-H23 lung): > 100 µM
TGI (NCI-H460 lung): > 100 µM
TGI (PC-3 prostate): > 100 µM
TGI (SK-MEL-28 melanoma): > 100 µM

COc1cc(C(=O)N(C(=O)N2CCCCC2)c2ccccc2)cc(OC)c1OC
TGI (A498 renal): > 100 µM
TGI (DU-145 prostate): > 100 µM
TGI (HCC-2998 colon): > 100 µM
TGI (K-562 leukemia): > 100 µM
TGI (MCF7 breast): > 100 µM
TGI (NCI-H23 lung): > 100 µM
TGI (NCI-H460 lung): > 100 µM
TGI (PC-3 prostate): > 100 µM
TGI (SK-MEL-28 melanoma): > 100 µM

COc1ccc(OC)c(-c2cc(=O)c3cc4c(cc3[nH]2)OCO4)c1
TGI (HCC-2998 colon): 17.6 µM
TGI (HT29 colon): > 100 µM
TGI (K-562 leukemia): > 100 µM
TGI (NCI-H23 lung): 15.4 µM
TGI (NCI-H460 lung): > 37.2 µM
TGI (SK-MEL-28 melanoma): > 100 µM

CN(C)C=Nc1c2c(nc3ccccc13)CCCC2
TGI (A498 renal): > 100 µM
TGI (DU-145 prostate): > 100 µM
TGI (HS 578T breast): > 100 µM
TGI (HT29 colon): > 100 µM
TGI (K-562 leukemia): > 100 µM
TGI (MCF7 breast): > 100 µM
TGI (NCI-H23 lung): > 100 µM
TGI (PC-3 prostate): > 100 µM
TGI (SK-MEL-28 melanoma): > 100 µM

CC(C)(CO)NC(=O)c1cccs1
TGI (DU-145 prostate): > 100 µM
TGI (HCC-2998 colon): > 100 µM
TGI (HT29 colon): > 100 µM
TGI (K-562 leukemia): > 100 µM
TGI (MCF7 breast): > 100 µM
TGI (NCI-H23 lung): > 100 µM
TGI (NCI-H460 lung): > 100 µM
TGI (PC-3 prostate): > 100 µM
TGI (SK-MEL-28 melanoma): > 100 µM

C=C(C)[C@@H]1CCC2=C(CC[C@]3(C)[C@@H]([C@@H](CCC=C(C)C)C(=O)O)[C@H](O)C[C@@]23C)[C@@]1(C)CCC(=O)O
TGI (A498 renal): > 100 µM
TGI (DU-145 prostate): > 100 µM
TGI (HS 578T breast): > 100 µM
TGI (HT29 colon): > 100 µM
TGI (K-562 leukemia): > 100 µM
TGI (NCI-H23 lung): > 100 µM
TGI (NCI-H460 lung): > 100 µM
TGI (PC-3 prostate): > 100 µM
TGI (SK-MEL-28 melanoma): > 100 µM

CC1(C)OC2[C@@H](CO[C@@]3([C@H]4OC(C)(C)O[C@@H]4CO)OC(C)(C)O[C@@H]23)O1 (stereo partly drawn)
TGI (DU-145 prostate): > 100 µM
TGI (HCC-2998 colon): > 100 µM
TGI (HS 578T breast): > 100 µM
TGI (HT29 colon): > 100 µM
TGI (K-562 leukemia): > 100 µM
TGI (MCF7 breast): > 100 µM
TGI (NCI-H23 lung): > 100 µM
TGI (NCI-H460 lung): > 100 µM
TGI (PC-3 prostate): > 100 µM
TGI (SK-MEL-28 melanoma): > 100 µM

COC(=O)C1=C(C)NC2=C(C(=O)c3ccccc32)C1c1cn[nH]c1-c1ccccc1 (stereo not drawn)
TGI (A498 renal): > 100 µM
TGI (DU-145 prostate): > 100 µM
TGI (HS 578T breast): > 100 µM
TGI (HT29 colon): > 100 µM
TGI (K-562 leukemia): > 100 µM
TGI (MCF7 breast): > 100 µM
TGI (NCI-H23 lung): > 100 µM
TGI (NCI-H460 lung): > 100 µM
TGI (PC-3 prostate): > 100 µM
TGI (SK-MEL-28 melanoma): > 100 µM

O=C1[C@H](O)[C@@H]2CCC[C@@]23CCCN13
TGI (A498 renal): > 100 µM
TGI (DU-145 prostate): > 100 µM
TGI (HCC-2998 colon): > 100 µM
TGI (HS 578T breast): > 100 µM
TGI (HT29 colon): > 100 µM
TGI (K-562 leukemia): > 100 µM
TGI (MCF7 breast): > 100 µM
TGI (NCI-H23 lung): > 100 µM
TGI (NCI-H460 lung): > 100 µM

CON(C(=O)OC(C)(C)C)c1ccccc1
TGI (A498 renal): > 100 µM
TGI (DU-145 prostate): > 100 µM
TGI (HCC-2998 colon): > 100 µM
TGI (HS 578T breast): > 100 µM
TGI (HT29 colon): > 100 µM
TGI (K-562 leukemia): > 100 µM
TGI (NCI-H23 lung): > 100 µM
TGI (NCI-H460 lung): > 100 µM
TGI (PC-3 prostate): > 100 µM
TGI (SK-MEL-28 melanoma): > 100 µM

O=C1NC2OC(CO)C(O)C(O)C2O1 (stereo not drawn)
TGI (A498 renal): > 100 µM
TGI (HCC-2998 colon): > 100 µM
TGI (HT29 colon): > 100 µM
TGI (K-562 leukemia): > 100 µM
TGI (NCI-H23 lung): > 100 µM
TGI (NCI-H460 lung): > 100 µM
TGI (SK-MEL-28 melanoma): > 100 µM

CCc1n[nH]c(=O)n1N=C(c1ccccc1)c1ccccc1
TGI (A498 renal): > 100 µM
TGI (DU-145 prostate): > 100 µM
TGI (HS 578T breast): > 100 µM
TGI (HT29 colon): > 100 µM
TGI (K-562 leukemia): > 100 µM
TGI (MCF7 breast): > 100 µM
TGI (NCI-H23 lung): > 100 µM
TGI (NCI-H460 lung): > 100 µM
TGI (PC-3 prostate): > 100 µM
TGI (SK-MEL-28 melanoma): > 100 µM

CC(=O)N1CCN(CCCCN2c3ccccc3Sc3cc(N=[N+]=[N-])ccc32)CC1
TGI (DU-145 prostate): 32.1 µM
TGI (HCC-2998 colon): 28.5 µM
TGI (HS 578T breast): 32.7 µM
TGI (HT29 colon): 27.8 µM
TGI (K-562 leukemia): 31.3 µM
TGI (MCF7 breast): 28.9 µM
TGI (NCI-H23 lung): 30.1 µM
TGI (NCI-H460 lung): 28.1 µM
TGI (PC-3 prostate): 20 µM
TGI (SK-MEL-28 melanoma): 33.4 µM

CCCCc1c2c(nc3c1CCCC3=O)CCCC2
TGI (HCC-2998 colon): > 100 µM
TGI (HT29 colon): > 100 µM
TGI (K-562 leukemia): > 100 µM
TGI (NCI-H23 lung): > 100 µM
TGI (NCI-H460 lung): > 100 µM
TGI (SK-MEL-28 melanoma): > 100 µM

CC(=O)OC12OC(C)(C3C(=O)N(c4ccccc4)C(=O)C31)N(c1ccccc1)C2=O (stereo not drawn)
TGI (DU-145 prostate): > 100 µM
TGI (HCC-2998 colon): > 100 µM
TGI (HS 578T breast): > 100 µM
TGI (HT29 colon): > 100 µM
TGI (K-562 leukemia): > 100 µM
TGI (MCF7 breast): > 100 µM
TGI (NCI-H23 lung): > 100 µM
TGI (NCI-H460 lung): > 100 µM
TGI (PC-3 prostate): > 100 µM
TGI (SK-MEL-28 melanoma): > 100 µM

O=C1C(=Cc2ccc([N+](=O)[O-])o2)C(=O)N(CCc2ccccc2)S(=O)(=O)N1CCc1ccccc1
TGI (HCC-2998 colon): > 100 µM
TGI (HT29 colon): > 100 µM
TGI (K-562 leukemia): > 100 µM
TGI (NCI-H23 lung): 31.9 µM
TGI (NCI-H460 lung): > 100 µM
TGI (SK-MEL-28 melanoma): 28 µM

COCC1N=C(c2cc(OC)c(OC)c(OC)c2-c2cc3c(cc2[C@@H](C)O)OCO3)O[C@H]1c1ccccc1 (stereo partly drawn)
TGI (A498 renal): > 100 µM
TGI (HCC-2998 colon): > 100 µM
TGI (HT29 colon): > 100 µM
TGI (K-562 leukemia): > 100 µM
TGI (MCF7 breast): > 100 µM
TGI (NCI-H23 lung): > 100 µM
TGI (NCI-H460 lung): > 100 µM
TGI (SK-MEL-28 melanoma): > 100 µM

COc1ccc(/C=C(\C2=NC(=O)CS2)c2nc3ccccc3[nH]2)cc1
TGI (A498 renal): > 100 µM
TGI (HCC-2998 colon): 49.7 µM
TGI (HT29 colon): > 100 µM
TGI (K-562 leukemia): > 100 µM
TGI (NCI-H23 lung): > 100 µM
TGI (NCI-H460 lung): > 100 µM
TGI (SK-MEL-28 melanoma): > 100 µM

COc1cc(CC(=O)c2cc3c(cc2-c2ccccc2)OCO3)cc(OC)c1OC
TGI (A498 renal): > 100 µM
TGI (HCC-2998 colon): > 100 µM
TGI (HT29 colon): > 100 µM
TGI (K-562 leukemia): > 100 µM
TGI (NCI-H23 lung): > 100 µM
TGI (NCI-H460 lung): > 100 µM
TGI (SK-MEL-28 melanoma): > 100 µM

CC(=O)Nc1ccc(C(=O)n2[nH]c(C)c(/C=C3\C(=O)C=Cc4ccccc43)c2=O)cc1
TGI (HCC-2998 colon): > 100 µM
TGI (HT29 colon): > 100 µM
TGI (K-562 leukemia): > 100 µM
TGI (NCI-H23 lung): > 100 µM
TGI (NCI-H460 lung): > 100 µM
TGI (SK-MEL-28 melanoma): > 100 µM

Cc1cc(=O)[nH]c(NNC(C#N)c2ccc(N(C)C)cc2)n1 (stereo not drawn)
TGI (HT29 colon): > 100 µM
TGI (K-562 leukemia): > 100 µM
TGI (NCI-H23 lung): > 100 µM
TGI (NCI-H460 lung): > 100 µM
TGI (SK-MEL-28 melanoma): > 100 µM

Brc1ccc(C[N+]23CN4CN(CN(C4)C2)C3)cc1
TGI (HCC-2998 colon): > 100 µM
TGI (K-562 leukemia): > 100 µM
TGI (NCI-H23 lung): > 100 µM
TGI (NCI-H460 lung): > 100 µM
TGI (SK-MEL-28 melanoma): > 100 µM

Source: PubChem BioAssay (NCI)
